The record followed here is patent publication US9586931B2 (Merck Sharp & Dohme Corp., priority 2012, dated 2017).

The target of the assay is T1, recombinant human GST-Syk (Homo sapiens, UniProt P43405).
T1 construct: purchased Carna Biosciences 08-176
The experiment in a line: Homogeneous Time-Resolved Fluorescence (HTRF) assay for the recombinant human Syk enzyme. The format is biochemical. The settings on record: recombinant human GST-Syk 5 pM, ATP 25 μM, 10-dose titration 10 μM to 0.508 nM; read-out: rhSYK Activity IC50. The gist of the method:
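GST-hSyk fusion protein phosphorylated a peptide for 45 min at room temperature. The reaction was quenched with 2 nM Eu-anti-phosphotyrosine antibody and 70 nM SA-APC in 15 mM Tris pH 7.5, 40 mM EDTA, 0.01% Tween 20. The HTRF signal was read after 30 min.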
On the technique in general: TR-FRET usually uses a lanthanide donor and a delayed reading to cut background.
For orientation: IC50 means the concentration that gives 50% inhibition. As to `Cc1cc(Nc2cc(C(F)F)ccn2)nc(-c2cn(CC3OC(=O)NC3C)nn2)c1` (single isomer, unassigned) [Example 7.14, 5-((4-(6-((4-(difluoromethyl)pyridin-2-yl)amino)-4-methylpyridin-2-yl)-1H-1,2,3-triazol-1-yl)methyl)-4-methyloxazolidin-2-one], the IC50 was 1.6 nM.

Consider `Cc1cc(Nc2cc(C(F)(F)F)ccn2)nc(-c2cn(C(C)C(O)CC#N)nn2)c1` (centres unmarked) [Example 4.2, 3-hydroxy-4-[4-(4-methyl-6-{[4-(trifluoromethyl)pyridin-2-yl]amino}pyridin-2-yl)-1H-1,2,3-triazol-1-yl]pentanenitrile], for which the half-inhibitory concentration (IC50) is 12.8 nM.

Regarding `Cc1cc(Nc2cc(C(F)(F)F)ccn2)nc(-c2cn(C(C)C(=O)NCC3(c4ccc(F)cc4)CCOCC3)nn2)c1` (centres unmarked) [Example 1.49, N-{[4-(4-fluorophenyl)tetrahydro-2H-pyran-4-yl]methyl}-2-[4-(4-methyl-6-{[4-(trifluoromethyl)pyridin-2-yl]amino}pyridin-2-yl)-1H-1,2,3-triazol-1-yl]propanamide], the IC50 turned out to be 404 nM.

Turning to `COC(=O)C(C)n1cc(-c2cc(C)cc(Nc3cc(C(F)(F)F)ccn3)n2)nn1` (centres unmarked) [Example 5.20, methyl 2-[4-(4-methyl-6-{[4-(trifluoromethyl)pyridin-2-yl]amino}pyridin-2-yl)-1H-1,2,3-thiazol-1-yl]propanoate], the IC50 was 24.1 nM.

As to `COc1nc(Nc2cc(C)cc(-c3cn(CC(C)(O)C(C)(C)O)nn3)c2)ncc1F` (centres unmarked) [Example 21.33, 1-(4-{3-[(5-fluoro-4-methoxypyrimidin-2-yl)amino]-5-methylphenyl}-1H-1,2,3-triazol-1-yl)-2,3-dimethylbutane-2,3-diol], the IC50 amounted to 66.3 nM.

For `Cc1cc(Nc2cc(C(F)(F)F)ccn2)nc(-c2cn([C@H](C)C(=O)N3CCC[C@H]3C(N)=O)nn2)c1` [Example 1.19, 1-{(2R)-2-[4-(4-methyl-6-{[4-(trifluoromethyl)pyridin-2-yl]amino}pyridin-2-yl)-1H-1,2,3-triazol-1-yl]propanoyl}prolinamide], the half-maximal inhibitory concentration (IC50) was 123 nM.

Take `Cc1cc(Nc2nccc(C(F)F)n2)cc(-c2cn(CC3CNCCO3)nn2)c1` (single isomer, unassigned) [Example 22.2, 4-(difluoromethyl)-N-(3-methyl-5-(1-(morpholin-2-ylmethyl)-1H-1,2,3-triazol-4-yl)phenyl) pyrimidin-2-amine]: the IC50 was found to be 1.7 nM.

For the compound “4-{1-[4-(6-{[4-(cyclohexyloxy)pyridin-2-yl]amino}-4-methylpyridin-2-yl)-1H-1,2,3-triazol-1-yl]ethyl}benzoic acid [Example 2.7]”, the IC50 came out at 16.7 nM.

Consider `Cc1cc(Nc2cc(C(F)(F)F)ccn2)nc(-c2cn(-c3ccc(C(N)=O)cc3)nn2)c1` [Example 1.15, 4-[4-(4-methyl-6-{[4-(trifluoromethyl)pyridin-2-yl]amino}pyridin-2-yl)-1H-1,2,3-triazol-1-yl]benzamide], for which the IC50 was determined as 15.4 nM.

Consider `CCOC(=O)C(C)(C)Cc1cn(-c2cc(C)cc(Nc3nccc(C(F)(F)F)n3)c2)nn1` [Example 15.15, ethyl 2,2-dimethyl-3-[1-(3-methyl-5-{[4-(trifluoromethyl)pyrimidin-2-yl]amino}phenyl)-1H-1,2,3-triazol-4-yl]propanoate], for which the half-maximal inhibitory concentration (IC50) came out at 255 nM.

On to `COC(=O)C1(n2cc(-c3cc(C)cc(Nc4cc(C(F)(F)F)ccn4)n3)nn2)CC1` [Example 8.1, Methyl 1-[4-(4-methyl-6-{[4-(trifluoromethyl)pyridin-2-yl]amino}pyridin-2-yl)-1H-1,2,3-triazol-1-yl]cyclopropanecarboxylate], for which the IC50 stood at 14.9 nM.

In the case of `Cc1cc(Nc2nccc(C(F)(F)F)n2)cc(-c2cn(CC3(O)CCC(C(=O)O)C(C)(C)C3)nn2)c1` (centres unmarked) [Example 3.4, 4-hydroxy-2,2-dimethyl-4-{[4-(3-methyl-5-{[4-(trifluoromethyl)pyrimidin-2-yl]amino}phenyl)-1H-1,2,3-triazol-1-yl]methyl}cyclohexanecarboxylic acid], the IC50 was determined as 81.4 nM.

Take `Cc1cc(Nc2ncc(F)c(C(F)F)n2)cc(-c2cn(CC3OC(=O)NC3C)nn2)c1` (single isomer, unassigned) [Example 7.38, 5-{[4-(3-{[4-(difluoromethyl)-5-fluoropyrimidin-2-yl]amino}-5-methylphenyl)-1H-1,2,3-triazol-1-yl]methyl}-4-methyl-1,3-oxazolidin-2-one]: the IC50 is 33.1 nM.

As to `Cc1cc(Nc2cc(C(F)(F)F)ccn2)nc(-c2cn([C@@H](C)C(=O)NCC(N)=O)nn2)c1` [Example 1.22, (2S)-N-(2-amino-2-oxoethyl)-2-[4-(4-methyl-6-{[4-(trifluoromethyl)pyridin-2-yl]amino}pyridin-2-yl)-1H-1,2,3-triazol-1-yl]propanamide], the 50% inhibitory concentration (IC50) was 22.8 nM.

For the compound `Cc1cc(Nc2cc(C(F)(F)F)ccn2)nc(-c2cn(CCOC(N)=O)nn2)c1` [Example 5.110, 2-[4-(4-methyl-6-{[4-(trifluoromethyl)pyridin-2-yl]amino}pyridin-2-yl)-1H-1,2,3-triazol-1-yl]ethyl carbamate], the concentration for half-maximal inhibition (IC50) came to 6.2 nM.

For the compound `Cc1cc(Nc2cc(C(F)(F)F)ccn2)nc(-c2cn(CC(=O)N3CCCC3)nn2)c1` [Example 5.87, 4-methyl-6-[1-(2-oxo-2-pyrrolidin-1-ylethyl)-1H-1,2,3-triazol-4-yl]-N-[4-(trifluoromethyl)pyridin-2-yl]pyridin-2-amine], the IC50 was found to be 81.2 nM.

With `Cc1cc(Nc2nccc(C(F)F)n2)cc(-c2cn(C3CCCC(O)C3O)nn2)c1` (single isomer, unassigned) [Example 25.2, 3-(4-(3-((4-(difluoromethyl)pyrimidin-2-yl)amino)-5-methylphenyl)-1H-1,2,3-triazol-1-yl)cyclohexane-1,2-diol], the concentration for half-maximal inhibition (IC50) came to 7.3 nM.

Turning to `Cc1cc(Nc2ncc(F)c(C(F)F)n2)cc(-c2cn(C3CCCCC3O)nn2)c1` (single isomer, unassigned) [Example 7.30, 2-[4-(3-{[4-(difluoromethyl)-5-fluoropyrimidin-2-yl]amino}-5-methylphenyl)-1H-1,2,3-triazol-1-yl]cyclohexanol], the IC50 is 9.9 nM.

Turning to `Cc1cc(Nc2cc(C(F)(F)F)ccn2)nc(-c2cn(C(C(N)=O)c3ccccc3)nn2)c1` (centres unmarked) [Example 1.18, 2-[4-(4-methyl-6-{[4-(trifluoromethyl)pyridin-2-yl]amino}pyridin-2-yl)-1H-1,2,3-triazol-1-yl]-2-phenylacetamide], the half-maximal inhibitory concentration (IC50) was found to be 11.8 nM.

For `Cc1cc(Nc2nccc(C(F)(F)F)n2)cc(-c2cn(Cc3ccc(CC(=O)O)cc3)nn2)c1` [Example 5.2, (4-{[4-(3-methyl-5-{[4-(trifluoromethyl)pyrimidin-2-yl]amino}phenyl)-1H-1,2,3-triazol-1-yl]methyl}phenyl)acetic acid], the IC50 worked out at 4.4 nM.

As for `Cc1cc(Nc2nccc(C(F)(F)F)n2)cc(-c2cn(CC(=O)N3[C@@H](C)COC[C@@H]3C)nn2)c1` (relative stereo) [Example 5.47, N-[3-(1-{2-[trans-3,5-dimethylmorpholin-4-yl]-2-oxoethyl}-1H-1,2,3-triazol-4-yl)-5-methylphenyl]-4-(trifluoromethyl)pyrimidin-2-amine], the IC50 is 80.2 nM.

For `Cc1cc(Nc2ncc(F)c(C(F)F)n2)cc(-c2cn(CC3CNC(=O)O3)nn2)c1` (centres unmarked) [Example 7.36, 5-{[4-(3-{[4-(difluoromethyl)-5-fluoropyrimidin-2-yl]amino}-5-methylphenyl)-1H-1,2,3-triazol-1-yl]methyl}-1,3-oxazolidin-2-one], the half-inhibitory concentration (IC50) stood at 16.2 nM.

Take `Cc1cc(Nc2ncc(F)c(C(F)F)n2)cc(-c2cn(CC3OC(=O)NC3C)nn2)c1` (single isomer, unassigned) [Example 7.37, 5-{[4-(3-{[4-(difluoromethyl)-5-fluoropyrimidin-2-yl]amino}-5-methylphenyl)-1H-1,2,3-triazol-1-yl]methyl}-4-methyl-1,3-oxazolidin-2-one]: the IC50 stood at 15.9 nM.

On to `Cc1cc(Nc2cc(C(F)(F)F)ccn2)nc(-c2cn(CC#N)nn2)c1` [Example 5.92, [4-(4-methyl-6-{[4-(trifluoromethyl)pyridin-2-yl]amino}pyridin-2-yl)-1H-1,2,3-triazol-1-yl]acetonitrile], for which the IC50 came out at 22 nM.

`Cc1cc(Nc2nccc(C(F)(F)F)n2)cc(-c2cn(CC(O)C(F)(F)F)nn2)c1` (racemic) [Example 5.54, 1,1,1-trifluoro-3-[4-(3-methyl-5-{[4-(trifluoromethyl)pyrimidin-2-yl]amino}phenyl)-1H-1,2,3-triazol-1-yl]propan-2-ol]: the IC50 came out at 29.4 nM.

On to `Cc1cc(Nc2cc(C(F)F)ccn2)nc(-c2cn(CC3CNC(=O)O3)nn2)c1` (single isomer, unassigned) [Example 7.12, 5-((4-(6-((4-(difluoromethyl)pyridin-2-yl)amino)-4-methylpyridin-2-yl)-1H-1,2,3-triazol-1-yl)methyl)oxazolidin-2-one], for which the 50% inhibitory concentration (IC50) came to 2 nM.

`Cc1cc(Nc2nccc(C(F)(F)F)n2)cc(-c2cn(CCCO)nn2)c1` [Example 5.77, 3-[4-(3-methyl-5-{[4-(trifluoromethyl)pyrimidin-2-yl]amino}phenyl)-1H-1,2,3-triazol-1-yl]propan-1-ol]: the IC50 is 50.7 nM.

Take `Cc1cc(Nc2ncc(F)c(C(F)F)n2)cc(-c2cn(C3CCCCC3O)nn2)c1` (single isomer, unassigned) [Example 7.29, 2-[4-(3-{[4-(difluoromethyl)-5-fluoropyrimidin-2-yl]amino}-5-methylphenyl)-1H-1,2,3-triazol-1-yl]cyclohexanol]: the IC50 worked out at 14.3 nM.

Regarding `Cc1cc(Nc2nccc(C(F)(F)F)n2)cc(-n2cc(C3(O)CCC(O)CC3)nn2)c1` (stereo not drawn) [Example 15.16, trans-1-[1-(3-methyl-5-{[4-(trifluoromethyl)pyrimidin-2-yl]amino}phenyl)-1H-1,2,3-triazol-4-yl]cyclohexane-1,4-diol], the IC50 amounted to 117 nM.
